Experimental data reported in US12344618B2, “Heterotricyclic derivative compound and use of same” (HANMI PHARMACEUTICAL CO., LTD., priority 2019, dated 2025).
Like-named read-outs stand apart in the source and are kept apart here.

Columns and labels:
[1] = Metabolic stability in human liver microsomes; assay type: in vitro ADME; settings: 5 μM compound, 1 mg/mL human liver microsomes, 37° C., NADPH regenerating system
Description: (§1) In order to confirm the metabolic stability of the synthetic compounds in the liver, 5 μM test compound and 1 mg/mL human, dog, rat or mouse liver microsomes were allowed to react with each other at 37° C. in the presence of the NADPH regenerating system for 1 hour. After 1 hour, the reaction was terminated and the supernatant obtained by centrifugation was analyzed by HPLC. With the peak value obtained as the analysis result, the residual amount (%) was calculated using the following equation through the peak value of the test compound after 1 hour of the reaction versus the peak value of the test compound at 0 min. Residual amount (%)=(peak value of test compound after 1 hour of reaction/peak value of test compound at 0 min)×100

[2] = Metabolic stability in mouse liver microsomes; assay type: in vitro ADME; settings: 5 μM compound, 1 mg/mL mouse liver microsomes, 37° C., NADPH regenerating system
Description: as §1

EZH1 = biological target: T1, EZH1 (Homo sapiens, UniProt Q92800); experiment: Inhibitory activity against EZH1 methyltransferase (radiometric scintillation proximity assay); assay type: biochemical; settings: 2.3 nmol/L enzyme, 90 minutes, room temperature;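 further: Read-out is methylation of a substrate peptide, captured on streptavidin-coated SPA beads and counted by scintillation, in Tris-HCl buffer at pH 8.0 with 1% DMSO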
T1 construct: purchased Reaction Biology Corp. (contract assay)
T1 sequence (Q92800 whole entry): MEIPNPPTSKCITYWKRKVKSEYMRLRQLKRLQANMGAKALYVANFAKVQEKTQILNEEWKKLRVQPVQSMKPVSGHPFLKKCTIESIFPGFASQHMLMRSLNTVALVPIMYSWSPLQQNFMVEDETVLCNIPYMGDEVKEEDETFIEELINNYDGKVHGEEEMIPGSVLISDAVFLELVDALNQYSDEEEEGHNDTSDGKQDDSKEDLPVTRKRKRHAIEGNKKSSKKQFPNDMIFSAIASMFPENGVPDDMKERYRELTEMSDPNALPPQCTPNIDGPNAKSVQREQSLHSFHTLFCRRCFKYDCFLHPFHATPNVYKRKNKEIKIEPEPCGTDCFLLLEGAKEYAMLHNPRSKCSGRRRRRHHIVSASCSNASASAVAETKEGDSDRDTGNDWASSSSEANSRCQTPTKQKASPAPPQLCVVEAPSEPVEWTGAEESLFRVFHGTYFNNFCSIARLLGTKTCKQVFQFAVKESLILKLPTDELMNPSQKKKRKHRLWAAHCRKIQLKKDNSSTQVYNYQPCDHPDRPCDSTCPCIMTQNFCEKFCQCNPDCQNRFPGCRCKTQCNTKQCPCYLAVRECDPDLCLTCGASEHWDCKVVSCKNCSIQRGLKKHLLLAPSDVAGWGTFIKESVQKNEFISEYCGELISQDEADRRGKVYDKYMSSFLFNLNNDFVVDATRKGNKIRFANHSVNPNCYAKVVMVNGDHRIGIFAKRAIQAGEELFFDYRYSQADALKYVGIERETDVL
T1 sequence (O75530 whole entry partner): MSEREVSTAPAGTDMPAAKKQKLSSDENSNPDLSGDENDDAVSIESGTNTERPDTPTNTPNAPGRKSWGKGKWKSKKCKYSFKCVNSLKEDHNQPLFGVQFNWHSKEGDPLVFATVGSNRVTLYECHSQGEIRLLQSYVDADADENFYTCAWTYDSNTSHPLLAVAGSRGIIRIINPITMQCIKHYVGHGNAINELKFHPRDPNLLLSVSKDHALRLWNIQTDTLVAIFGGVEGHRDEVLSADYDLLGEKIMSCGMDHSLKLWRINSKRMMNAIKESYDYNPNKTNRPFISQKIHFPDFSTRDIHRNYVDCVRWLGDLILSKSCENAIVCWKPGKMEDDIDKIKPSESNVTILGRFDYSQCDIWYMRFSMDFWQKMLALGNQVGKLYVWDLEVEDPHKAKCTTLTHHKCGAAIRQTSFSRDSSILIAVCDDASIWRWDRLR
T1 sequence (Q15022 whole entry partner): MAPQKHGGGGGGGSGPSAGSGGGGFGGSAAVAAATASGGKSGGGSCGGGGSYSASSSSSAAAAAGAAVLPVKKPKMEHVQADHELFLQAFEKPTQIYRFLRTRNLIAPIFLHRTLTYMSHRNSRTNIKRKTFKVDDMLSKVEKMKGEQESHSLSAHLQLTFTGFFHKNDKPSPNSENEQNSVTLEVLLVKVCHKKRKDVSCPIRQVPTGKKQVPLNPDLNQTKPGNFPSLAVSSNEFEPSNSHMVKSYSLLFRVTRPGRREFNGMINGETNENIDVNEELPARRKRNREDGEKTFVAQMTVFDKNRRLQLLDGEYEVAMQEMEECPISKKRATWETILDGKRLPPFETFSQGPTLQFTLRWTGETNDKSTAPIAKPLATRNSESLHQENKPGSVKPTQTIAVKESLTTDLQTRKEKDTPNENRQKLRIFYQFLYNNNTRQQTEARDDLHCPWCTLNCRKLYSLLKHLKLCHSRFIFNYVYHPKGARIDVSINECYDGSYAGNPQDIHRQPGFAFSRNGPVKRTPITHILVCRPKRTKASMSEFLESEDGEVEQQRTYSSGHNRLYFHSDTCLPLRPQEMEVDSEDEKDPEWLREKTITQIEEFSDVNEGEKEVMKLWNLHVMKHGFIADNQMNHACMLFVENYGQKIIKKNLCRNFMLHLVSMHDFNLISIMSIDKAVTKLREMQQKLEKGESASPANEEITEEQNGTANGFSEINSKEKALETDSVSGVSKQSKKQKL
T1 sequence (Q09028 whole entry partner): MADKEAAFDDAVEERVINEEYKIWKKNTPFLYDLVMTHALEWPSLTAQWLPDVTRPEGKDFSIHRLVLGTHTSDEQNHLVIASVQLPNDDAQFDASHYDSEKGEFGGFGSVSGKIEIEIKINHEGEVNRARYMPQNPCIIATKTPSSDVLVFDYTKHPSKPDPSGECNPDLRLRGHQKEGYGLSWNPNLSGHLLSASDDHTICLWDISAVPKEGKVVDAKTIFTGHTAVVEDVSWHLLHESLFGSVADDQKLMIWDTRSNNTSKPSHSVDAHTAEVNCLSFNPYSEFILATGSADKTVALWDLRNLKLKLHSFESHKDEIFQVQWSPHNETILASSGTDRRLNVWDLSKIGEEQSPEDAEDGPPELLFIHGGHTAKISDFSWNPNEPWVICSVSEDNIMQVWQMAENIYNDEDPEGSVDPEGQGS
T1 sequence (Q6ZN18 whole entry partner): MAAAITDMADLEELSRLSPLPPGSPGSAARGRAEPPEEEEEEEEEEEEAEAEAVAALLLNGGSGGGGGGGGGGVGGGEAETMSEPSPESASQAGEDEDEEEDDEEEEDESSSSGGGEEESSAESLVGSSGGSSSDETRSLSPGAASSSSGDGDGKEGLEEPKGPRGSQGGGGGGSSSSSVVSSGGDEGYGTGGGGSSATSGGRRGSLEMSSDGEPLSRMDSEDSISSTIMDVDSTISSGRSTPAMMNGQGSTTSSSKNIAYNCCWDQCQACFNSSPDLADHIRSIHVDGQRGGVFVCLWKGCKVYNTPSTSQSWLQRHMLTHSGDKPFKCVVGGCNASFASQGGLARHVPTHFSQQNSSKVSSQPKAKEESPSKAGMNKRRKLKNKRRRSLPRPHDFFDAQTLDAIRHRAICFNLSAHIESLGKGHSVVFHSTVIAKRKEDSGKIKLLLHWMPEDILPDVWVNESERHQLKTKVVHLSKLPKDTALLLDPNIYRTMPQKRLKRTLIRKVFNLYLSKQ
Description: (§2) The inhibitory activities of the synthetic compounds against EZH1 or EZH2 methyltransferase were measured. The experiment was conducted by Reaction Biology Corp., and the activity of EZH1 or EZH2 was measured using a radiometric scintillation proximity assay. […] The reaction buffer consisted of 50 mmol/L Tris-HCl (pH 8.0), 50 mmol/L NaCl, 1 mmol/L EDTA, 1 mmoL/L DTT, 1 mmol/L PMSF, and 1% DMSO. Trichloroacetic acid was added to terminate the reaction, and PVT streptavidin-coated SPA beads were added to each reaction solution, followed by further reaction at room temperature for 1 hour again. The methylation value of the substrate peptide was measured using the TopCount NXT plate reader.

[3] = test system: KARPAS-422 (EZH2 Y641N mutation); experiment: Cell growth inhibition test, KARPAS-422; assay type: cell-based; settings: KARPAS-422, culture time 7 days, read-out: Cell growth inhibitory activity (GI50, nM) KARPAS-422 (EZH2 Y641N mutation)
Description: Each type of the cultured cells was seeded in 6-well plates or 48-96 well plates, and subculture or medium replacement was performed every 3 to 4 days. Next, the cells were subcultured for a total of 7 to 14 days, and then seeded in 96-well plates. 3 to 5 days before the measurement of the effect, the cells were seeded in 96-well plates, and then the absorbance (Tz) on the day of seeding was measured. The absorbance after the reaction was measured by the plate reader device Synergy NeoAlpha (Biotek) using Cell-Titer-Glo Cell Viability Assay (Promega, G7573) according to the attached manual. Based on the absorbance (Tz) measured on the seeding day and the absorbance of each of the DMSO-treated group (C) and the sample-added group (Ti) measured on the day of effect determination, the percentage of cell proliferation inhibition was calculated according to the following Equation 1. [(Ti−Tz)/(C−Tz)]×100 for concentrations for which Ti≥Tz […] for concentrations for which Ti<Tz. [Equation 1]

EZH2 = EZH2 (Homo sapiens, UniProt Q15910); experiment: Inhibitory activity against EZH2 methyltransferase (radiometric scintillation proximity assay); settings: Enzyme inhibitory activity (IC50, nM) EZH2, 2.3 nmol/L enzyme, 90 minutes, room temperature;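 further: Read-out is substrate peptide methylation, captured on streptavidin-coated SPA beads and counted by scintillation, with the reaction run in Tris-HCl buffer at pH 8.0 containing 1% DMSO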
EZH2, sequence (Q15910 whole entry): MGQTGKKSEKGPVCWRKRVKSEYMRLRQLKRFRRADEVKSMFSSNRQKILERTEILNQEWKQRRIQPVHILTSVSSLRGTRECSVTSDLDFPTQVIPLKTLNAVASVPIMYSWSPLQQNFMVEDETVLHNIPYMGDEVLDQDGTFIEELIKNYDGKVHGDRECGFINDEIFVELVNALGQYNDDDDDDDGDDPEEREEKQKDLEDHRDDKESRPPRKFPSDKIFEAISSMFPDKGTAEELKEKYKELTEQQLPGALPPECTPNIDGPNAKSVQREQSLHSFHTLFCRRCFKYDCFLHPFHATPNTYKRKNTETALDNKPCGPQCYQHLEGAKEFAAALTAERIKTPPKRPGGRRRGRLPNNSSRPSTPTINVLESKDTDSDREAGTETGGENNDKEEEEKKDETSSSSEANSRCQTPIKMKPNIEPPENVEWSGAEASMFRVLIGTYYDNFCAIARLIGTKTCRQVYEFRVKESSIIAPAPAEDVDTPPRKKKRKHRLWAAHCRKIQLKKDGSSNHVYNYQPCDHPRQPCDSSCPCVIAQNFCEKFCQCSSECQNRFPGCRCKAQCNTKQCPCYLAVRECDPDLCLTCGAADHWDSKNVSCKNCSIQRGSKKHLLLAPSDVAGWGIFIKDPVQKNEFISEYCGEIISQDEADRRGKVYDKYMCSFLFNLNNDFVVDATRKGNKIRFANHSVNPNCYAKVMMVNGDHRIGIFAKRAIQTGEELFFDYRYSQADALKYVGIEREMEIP
EZH2, sequence (O75530 whole entry partner): as the sequence (O75530 whole entry partner) above
EZH2, sequence (Q15022 whole entry partner): as the sequence (Q15022 whole entry partner) above
EZH2, sequence (Q09028 whole entry partner): as the sequence (Q09028 whole entry partner) above
EZH2, sequence (Q6ZN18 whole entry partner): as the sequence (Q6ZN18 whole entry partner) above
Description: as §2

[4] = Homo sapiens, KARPAS-422, 168 h

SMILES	Residual amount (%) of test compound after 1 hour of reaction, Human [1] [%]	Residual amount (%) of test compound after 1 hour of reaction, Mouse [2] [%]	IC50 (EZH1) [nM]	GI50 [3] [nM]	IC50 (EZH2) [nM]	GI50 [3, 4] [nM]
Cc1cc(C)c(CN2CCc3c(C)c4c(c(Cl)c3C2=O)OC(C)([C@H]2CC[C@H](N(C)C)CC2)O4)c(=O)[nH]1 (single isomer, unassigned) [Compound 5, 4-chloro-6-((4,6-dimethyl-2-oxo-1,2-dihydropyridin-3-yl)methyl)-2-(trans-4-(dimethylamino)cyclohexyl)-2,9-dimethyl-7,8-dihydro-[1,3]dioxolo[4,5-g]isoquinolin-5(6H)-one]	89	78	16	2.4	1.3	
Cc1cc(C)c(CN2CCc3c(Cl)c4c(c(C)c3C2=O)OC(C)([C@H]2CC[C@H](N(C)C)CC2)O4)c(=O)[nH]1 (single isomer, unassigned) [Compound 11, 9-chloro-6-((4,6-dimethyl-2-oxo-1,2-dihydropyridin-3-yl)methyl)-2-(trans-4-(dimethylamino)cyclohexyl)-2,4-dimethyl-7,8-dihydro-[1,3]dioxolo[4,5-g]isoquinolin-5(6H)-one]	37	70	> 1000	≥ 563	116 to 473	
Cc1cc(C)c(CN2CCc3c(Cl)c4c(c(C)c3C2=O)OC(C)(C[C@H]2CC[C@H](N(C)C)CC2)O4)c(=O)[nH]1 (stereo partly drawn) [Compound 21, 9-chloro-6-((4,6-dimethyl-2-oxo-1,2-dihydropyridin-3-yl)methyl)-2-((trans-4-(dimethylamino)cyclohexyl)methyl)-2,4-dimethyl-7,8-dihydro-[1,3]dioxolo[4,5-g]isoquinolin-5(6H)-one]			137		7.2	75
Cc1cc(C)c(CN2CCc3c(Cl)c4c(c(C)c3C2=O)OC(C)(C2CCCCC2)O4)c(=O)[nH]1 (stereo not shown) [Compound 22, 9-chloro-2-cyclohexyl-6-((4,6-dimethyl-2-oxo-1,2-dihydropyridin-3-yl)methyl)-2,4-dimethyl-7,8-dihydro-[1,3]dioxolo[4,5-g]isoquinolin-5(6H)-one]			180		16	> 1000
Cc1cc(C)c(CN2CCc3c(Cl)c4c(c(C)c3C2=O)OC(C)(C2CCOCC2)O4)c(=O)[nH]1 (stereo not shown) [Compound 24, 9-chloro-6-((4,6-dimethyl-2-oxo-1,2-dihydropyridin-3-yl)methyl)-2,4-dimethyl-2-(tetrahydro-2H-pyran-4-yl)-7,8-dihydro-[1,3]dioxolo[4,5-g]isoquinolin-5(6H)-one]			34		3	62
Cc1cc(C)c(CN2CCc3c(Cl)c4c(c(C)c3C2=O)OC(C)(CCCCN(C)C)O4)c(=O)[nH]1 (stereo not shown) [Compound 26, 9-chloro-6-((4,6-dimethyl-2-oxo-1,2-dihydropyridin-3-yl)methyl)-2-(4-(dimethylamino)butyl)-2,4-dimethyl-7,8-dihydro-[1,3]dioxolo[4,5-g]isoquinolin-5(6H)-one]			85		6.2	99
Cc1cc(C)c(CN2CCc3c(Cl)c4c(c(C)c3C2=O)OC(C)(C2CCNCC2)O4)c(=O)[nH]1 (stereo not shown) [Compound 28, 9-chloro-6-((4,6-dimethyl-2-oxo-1,2-dihydropyridin-3-yl)methyl)-2,4-dimethyl-2-(piperidin-4-yl)-7,8-dihydro-[1,3]dioxolo[4,5-g]isoquinolin-5(6H)-one]			55		3.2	14
Cc1cc(C)c(CN2CCc3c(Cl)c4c(c(C)c3C2=O)OC(C)(C2CCN(C)CC2)O4)c(=O)[nH]1 (stereo not shown) [Compound 29, 9-chloro-6-((4,6-dimethyl-2-oxo-1,2-dihydropyridin-3-yl)methyl)-2,4-dimethyl-2-(1-methylpiperidin-4-yl)-7,8-dihydro-[1,3]dioxolo[4,5-g]isoquinolin-5(6H)-one]			136		5	51

The next lines start with the values.

Residual amount (%) of test compound after 1 hour of reaction, Human [1] [%]	Residual amount (%) of test compound after 1 hour of reaction, Mouse [2] [%]	IC50 (EZH1) [nM]	GI50 [3] [nM]	IC50 (EZH2) [nM]	GI50 [3, 4] [nM]	SMILES
53	63	> 1000	69	69		Cc1cc(C)c(CN2CCc3c(C)c4c(c(C)c3C2=O)OC(C)([C@H]2CC[C@H](N(C)C)CC2)O4)c(=O)[nH]1 (single isomer, unassigned) [Compound 41, 6-((4,6-dimethyl-2-oxo-1,2-dihydropyridin-3-yl)methyl)-2-(trans-4-(dimethylamino)cyclohexyl)-2,4,9-trimethyl-7,8-dihydro-[1,3]dioxolo[4,5-g]isoquinolin-5(6H)-one]
		190		3.4	307	CC[C@@H](O)C(=O)N1CCC(C2(C)Oc3c(C)c4c(c(Cl)c3O2)CCN(Cc2c(C)cc(C)[nH]c2=O)C4=O)CC1 (stereo partly drawn) [Compound 30, 9-chloro-6-((4,6-dimethyl-2-oxo-1,2-dihydropyridin-3-yl)methyl)-2-(1-((R)-2-hydroxybutanoyl)piperidin-4-yl)-2,4-dimethyl-7,8-dihydro-[1,3]dioxolo[4,5-g]isoquinolin-5(6H)-one]
		51		3.8	231	Cc1cc(C)c(CN2CCc3c(Cl)c4c(c(C)c3C2=O)OC(C)(C2CCN(CC(F)(F)F)CC2)O4)c(=O)[nH]1 (stereo not shown) [Compound 31, 9-chloro-6-((4,6-dimethyl-2-oxo-1,2-dihydropyridin-3-yl)methyl)-2,4-dimethyl-2-(1-(2,2,2-trifluoroethyl)piperidin-4-yl)-7,8-dihydro-[1,3]dioxolo[4,5-g]isoquinolin-5(6H)-one]
62	61	32 to 55		3.4 to 3.7	4.4 to 9.7	C=Cc1c2c(c(C)c3c1OC(C)([C@H]1CC[C@H](N(C)C)CC1)O3)C(=O)N(Cc1c(C)cc(C)[nH]c1=O)CC2 (stereo partly drawn) [Compound 52, 6-((4,6-dimethyl-2-oxo-1,2-dihydropyridin-3-yl)methyl)-2-(trans-4-(dimethylamino)cyclohexyl)-2,4-dimethyl-9-vinyl-7,8-dihydro-[1,3]dioxolo[4,5-g]isoquinolin-5(6H)-one]
67	85	27 to 139		4.5 to 9.1	5.1 to 14	C#Cc1c2c(c(C)c3c1OC(C)([C@H]1CC[C@H](N(C)C)CC1)O3)C(=O)N(Cc1c(C)cc(C)[nH]c1=O)CC2 (stereo partly drawn) [Compound 53, 6-((4,6-dimethyl-2-oxo-1,2-dihydropyridin-3-yl)methyl)-2-(trans-4-(dimethylamino)cyclohexyl)-9-ethynyl-2,4-dimethyl-7,8-dihydro-[1,3]dioxolo[4,5-g]isoquinolin-5(6H)-one]
		41		6.4	19	Cc1cc(C)c(CN2CCc3c(c(C)c4c(c3C3CC3)OC(C)([C@H]3CC[C@H](N(C)C)CC3)O4)C2=O)c(=O)[nH]1 (stereo partly drawn) [Compound 54, 9-cyclopropyl-6-((4,6-dimethyl-2-oxo-1,2-dihydropyridin-3-yl)methyl)-2-(trans-4-(dimethylamino)cyclohexyl)-2,4-dimethyl-7,8-dihydro-[1,3]dioxolo[4,5-g]isoquinolin-5(6H)-one]
		65		2.7	10	Cc1cc(C)c(CN2CCc3c(C#N)c4c(c(C)c3C2=O)OC(C)([C@H]2CC[C@H](N(C)C)CC2)O4)c(=O)[nH]1 (stereo partly drawn) [Compound 69, 6-((4,6-dimethyl-2-oxo-1,2-dihydropyridin-3-yl)methyl)-2-(trans-4-(dimethylamino)cyclohexyl)-2,4-dimethyl-5-oxo-5,6,7,8-tetrahydro-[1,3]dioxolo[4,5-g]isoquinolin-9-carbonitrile]
